Assay results as given in PubChem BioAssay AID2060896 (Molecular Pharmacology Branch, DTP, NCI, 2025).

Tested on: 941728-121-R-J1-PDC complex spheroid viability
Test: Anticancer human tumor 941728-121-R-J1-PDC patient-derived lung adenocarcinoma cell line growth inhibition [RAS]
Settings: for IC50: curve of first compound; for viability, T/C: stronger effect = lower value
Procedure, shortened: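 Agents were tested in combination matrices in half-log decrements from a top concentration at or near clinical Cmax (10 microM if undetermined). Targets were multi-cell spheroids of tumour lines plus HUVEC and MSC stromal cells.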

[1] = second compound 0.000949 µM, first compound 0.0316 µM
[2] = second compound 0.000949 µM, first compound 0.1 µM
[3] = second compound 0.000949 µM, first compound 0.316 µM
[4] = second compound 0.000949 µM, first compound 1 µM
[5] = second compound 0.000949 µM, first compound 3.16 µM
[6] = second compound 0.000949 µM, first compound 10 µM
[7] = second compound 0.003 µM, first compound 0.0316 µM
[8] = second compound 0.003 µM, first compound 0.1 µM
[9] = second compound 0.003 µM, first compound 0.316 µM
[10] = second compound 0.003 µM, first compound 1 µM
[11] = second compound 0.003 µM, first compound 3.16 µM
[12] = second compound 0.003 µM, first compound 10 µM
[13] = second compound 0.00949 µM, first compound 0.0316 µM
[14] = second compound 0.00949 µM, first compound 0.1 µM
[15] = second compound 0.00949 µM, first compound 0.316 µM
[16] = second compound 0.00949 µM, first compound 1 µM
[17] = second compound 0.00949 µM, first compound 3.16 µM
[18] = second compound 0.00949 µM, first compound 10 µM
[19] = second compound 0.03 µM, first compound 0.0316 µM
[20] = second compound 0.03 µM, first compound 0.1 µM
[21] = second compound 0.03 µM, first compound 0.316 µM
[22] = second compound 0.03 µM, first compound 1 µM
[23] = second compound 0.03 µM, first compound 3.16 µM
[24] = second compound 0.03 µM, first compound 10 µM
[25] = second compound 0.0949 µM, first compound 0.0316 µM
[26] = second compound 0.0949 µM, first compound 0.1 µM
[27] = second compound 0.0949 µM, first compound 0.316 µM
[28] = second compound 0.0949 µM, first compound 1 µM
[29] = second compound 0.0949 µM, first compound 3.16 µM
[30] = second compound 0.0949 µM, first compound 10 µM
[31] = second compound 0.3 µM, first compound 0.0316 µM
[32] = second compound 0.3 µM, first compound 0.1 µM
[33] = second compound 0.3 µM, first compound 0.316 µM
[34] = second compound 0.3 µM, first compound 1 µM
[35] = second compound 0.3 µM, first compound 3.16 µM
[36] = second compound 0.3 µM, first compound 10 µM
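Also: spheroids exposed to compounds for 7 days before readout.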
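For viability, T/C in this document: 100% = DMSO vehicle control viability.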

SMILES: CC(=O)OC12COC1CC(O)C1(C)C(=O)C(O)C3=C(C)C(OC(=O)C(O)C(NC(=O)OC(C)(C)C)c4ccccc4)CC(O)(C(OC(=O)c4ccccc4)C21)C3(C)C (stereo unspecified) + CCn1c(-c2cc(N3CCN(C)CC3)cnc2C(C)OC)c2c3cc(ccc31)-c1csc(n1)CC(NC(=O)C1CC1C)C(=O)N1CCCC(N1)C(=O)OCC(C)(C)C2
- IC50 (second compound 0.000949 µM): < 31.6 nM
- IC50 (second compound 0.003 µM): < 31.6 nM
- IC50 (second compound 0.00949 µM): < 31.6 nM
- IC50 (second compound 0.03 µM): < 31.6 nM
- IC50 (second compound 0.0949 µM): < 31.6 nM
- IC50 (second compound 0.3 µM): < 31.6 nM
- viability, T/C [1]: 21.7%
- viability, T/C [2]: 21.4%
- viability, T/C [3]: 16.5%
- viability, T/C [4]: 19.6%
- viability, T/C [5]: 21.3%
- viability, T/C [6]: 16.5%
- viability, T/C [7]: 15.3%
- viability, T/C [8]: 16.9%
- viability, T/C [9]: 12.5%
- viability, T/C [10]: 13.8%
- viability, T/C [11]: 13.4%
- viability, T/C [12]: 11.2%
- viability, T/C [13]: 13.5%
- viability, T/C [14]: 9.99%
- viability, T/C [15]: 11.2%
- viability, T/C [16]: 9.23%
- viability, T/C [17]: 10.8%
- viability, T/C [18]: 10.2%
- viability, T/C [19]: 10.2%
- viability, T/C [20]: 9.9%
- viability, T/C [21]: 9.46%
- viability, T/C [22]: 9.75%
- viability, T/C [23]: 7.17%
- viability, T/C [24]: 11.4%
- viability, T/C [25]: 10.4%
- viability, T/C [26]: 11%
- viability, T/C [27]: 9.54%
- viability, T/C [28]: 8.5%
- viability, T/C [29]: 8.8%
- viability, T/C [30]: 9.11%
- viability, T/C [31]: 9.41%
- viability, T/C [32]: 9.25%
- viability, T/C [33]: 8.94%
- viability, T/C [34]: 9.02%
- viability, T/C [35]: 7.68%
- viability, T/C [36]: 9.8%

SMILES: NC1c2ccccc2OC12CCN(c1cnc3c(N4CCCc5ncccc54)n[nH]c3n1)CC2 (stereo unspecified) + CCn1c(-c2cc(N3CCN(C)CC3)cnc2C(C)OC)c2c3cc(ccc31)-c1csc(n1)CC(NC(=O)C1CC1C)C(=O)N1CCCC(N1)C(=O)OCC(C)(C)C2
- IC50 (second compound 0.000949 µM): < 31.6 nM
- IC50 (second compound 0.003 µM): < 31.6 nM
- IC50 (second compound 0.00949 µM): < 31.6 nM
- IC50 (second compound 0.03 µM): < 31.6 nM
- IC50 (second compound 0.0949 µM): < 31.6 nM
- IC50 (second compound 0.3 µM): < 31.6 nM
- viability, T/C [1]: 22%
- viability, T/C [2]: 17.4%
- viability, T/C [3]: 13.4%
- viability, T/C [4]: 16.5%
- viability, T/C [5]: 16.6%
- viability, T/C [6]: 12%
- viability, T/C [7]: 15.2%
- viability, T/C [8]: 12.4%
- viability, T/C [9]: 10.6%
- viability, T/C [10]: 14%
- viability, T/C [11]: 13.8%
- viability, T/C [12]: 10.3%
- viability, T/C [13]: 13.7%
- viability, T/C [14]: 10.5%
- viability, T/C [15]: 12.5%
- viability, T/C [16]: 10.8%
- viability, T/C [17]: 9.25%
- viability, T/C [18]: 9.84%
- viability, T/C [19]: 11.9%
- viability, T/C [20]: 12.4%
- viability, T/C [21]: 12.1%
- viability, T/C [22]: 11.1%
- viability, T/C [23]: 11.3%
- viability, T/C [24]: 15.1%
- viability, T/C [25]: 11.4%
- viability, T/C [26]: 13.5%
- viability, T/C [27]: 12.8%
- viability, T/C [28]: 12.2%
- viability, T/C [29]: 10.5%
- viability, T/C [30]: 15.2%
- viability, T/C [31]: 11.6%
- viability, T/C [32]: 12.1%
- viability, T/C [33]: 10.4%
- viability, T/C [34]: 10.9%
- viability, T/C [35]: 10.4%
- viability, T/C [36]: 15.5%

SMILES: Nc1ccn(C2OC(CO)C(O)C2(F)F)c(=O)n1 (stereo unspecified) + CCn1c(-c2cc(N3CCN(C)CC3)cnc2C(C)OC)c2c3cc(ccc31)-c1csc(n1)CC(NC(=O)C1CC1C)C(=O)N1CCCC(N1)C(=O)OCC(C)(C)C2
- IC50 (second compound 0.000949 µM): < 3.16 nM
- IC50 (second compound 0.003 µM): < 3.16 nM
- IC50 (second compound 0.00949 µM): < 3.16 nM
- IC50 (second compound 0.03 µM): < 3.16 nM
- IC50 (second compound 0.0949 µM): < 3.16 nM
- IC50 (second compound 0.3 µM): < 3.16 nM
- viability, T/C (second compound 0.000949 µM, first compound 0.00316 µM): 25.2%
- viability, T/C (second compound 0.000949 µM, first compound 0.01 µM): 25.2%
- viability, T/C [1]: 16.8%
- viability, T/C [2]: 21.1%
- viability, T/C [3]: 21%
- viability, T/C [4]: 17.1%
- viability, T/C (second compound 0.003 µM, first compound 0.00316 µM): 18.2%
- viability, T/C (second compound 0.003 µM, first compound 0.01 µM): 16.7%
- viability, T/C [7]: 13.1%
- viability, T/C [8]: 15.3%
- viability, T/C [9]: 16.6%
- viability, T/C [10]: 12.2%
- viability, T/C (second compound 0.00949 µM, first compound 0.00316 µM): 13.2%
- viability, T/C (second compound 0.00949 µM, first compound 0.01 µM): 11.3%
- viability, T/C [13]: 12.9%
- viability, T/C [14]: 12.9%
- viability, T/C [15]: 12.4%
- viability, T/C [16]: 10.5%
- viability, T/C (second compound 0.03 µM, first compound 0.00316 µM): 12.4%
- viability, T/C (second compound 0.03 µM, first compound 0.01 µM): 11.8%
- viability, T/C [19]: 10.8%
- viability, T/C [20]: 10.7%
- viability, T/C [21]: 10.8%
- viability, T/C [22]: 10.1%
- viability, T/C (second compound 0.0949 µM, first compound 0.00316 µM): 13.3%
- viability, T/C (second compound 0.0949 µM, first compound 0.01 µM): 10.6%
- viability, T/C [25]: 12.8%
- viability, T/C [26]: 11%
- viability, T/C [27]: 9.57%
- viability, T/C [28]: 11%
- viability, T/C (second compound 0.3 µM, first compound 0.00316 µM): 10.7%
- viability, T/C (second compound 0.3 µM, first compound 0.01 µM): 10.2%
- viability, T/C [31]: 11%
- viability, T/C [32]: 10.4%
- viability, T/C [33]: 10.2%
- viability, T/C [34]: 11.7%
